Results: patent US20010020002A1, “Androgen activity antagonists as therapies for anorexia, anorexia nervosa and disorders characterized by a pathologically underweight condition” (VELA PHARMACEUTICALS INC., priority 1997, published 2001)

How the values were obtained:
[1] = in vivo; cited from earlier work
[2] = Example 1: flutamide therapy of a patient with anorexia nervosa; type: in vivo, human; details: person with AN, 250 mg daily, follow-up in one week
Description: The dose of flutamide is increased to 500 mg daily (250 mg twice a day). They then return every month for an assessment of their symptomatology using the Yale-Brown-Cornell Eating Disorder Scale (YBC-EDS).

[3] = Example 5: flutamide therapy of cachexia in an AIDS patient; type: in vivo, human; details: person with AIDS, 750 mg daily in three divided doses

CC1(C)NC(=O)N(c2ccc([N+](=O)[O-])c(C(F)(F)F)c2)C1=O [Nilutamide, nilutamide]
half-life [1]: 40 h

CC(C)C(=O)Nc1ccc([N+](=O)[O-])c(C(F)(F)F)c1 [flutamide]
tolerability of therapy [2]: tolerated the therapy well
initial side effects [3]: initial problems with diarrhea and breast tenderness
tolerability of therapy [3]: tolerated well
half-life [1]: 5.2 h
